13 molecules from patent publication US20210347727A1 (BLADE THERAPEUTICS, INC., priority 2017, published 2021) can be followed below.

One experiment has as its target T1, Human Calpain 2/NS1 (Homo sapiens, UniProt P17655).
T1 sequence (P17655 1-700): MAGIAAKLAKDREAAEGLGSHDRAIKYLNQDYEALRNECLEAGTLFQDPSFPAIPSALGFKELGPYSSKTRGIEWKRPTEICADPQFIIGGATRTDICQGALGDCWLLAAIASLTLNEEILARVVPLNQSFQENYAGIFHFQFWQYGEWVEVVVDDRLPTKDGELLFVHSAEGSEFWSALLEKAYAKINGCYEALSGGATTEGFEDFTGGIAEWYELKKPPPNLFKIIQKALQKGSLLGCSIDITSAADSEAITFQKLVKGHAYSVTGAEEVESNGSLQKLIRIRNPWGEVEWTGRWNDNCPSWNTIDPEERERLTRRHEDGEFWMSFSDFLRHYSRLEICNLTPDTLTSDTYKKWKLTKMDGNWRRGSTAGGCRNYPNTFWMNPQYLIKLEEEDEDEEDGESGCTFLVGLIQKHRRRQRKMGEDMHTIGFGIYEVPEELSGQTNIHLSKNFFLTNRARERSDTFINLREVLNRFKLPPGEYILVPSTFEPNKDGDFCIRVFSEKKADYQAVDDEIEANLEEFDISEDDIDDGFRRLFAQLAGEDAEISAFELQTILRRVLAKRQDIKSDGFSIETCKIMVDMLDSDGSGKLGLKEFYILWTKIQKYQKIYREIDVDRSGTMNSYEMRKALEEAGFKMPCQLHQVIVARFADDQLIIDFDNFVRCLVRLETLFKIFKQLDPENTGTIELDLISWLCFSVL
T1 sequence (P04632 1-268 partner): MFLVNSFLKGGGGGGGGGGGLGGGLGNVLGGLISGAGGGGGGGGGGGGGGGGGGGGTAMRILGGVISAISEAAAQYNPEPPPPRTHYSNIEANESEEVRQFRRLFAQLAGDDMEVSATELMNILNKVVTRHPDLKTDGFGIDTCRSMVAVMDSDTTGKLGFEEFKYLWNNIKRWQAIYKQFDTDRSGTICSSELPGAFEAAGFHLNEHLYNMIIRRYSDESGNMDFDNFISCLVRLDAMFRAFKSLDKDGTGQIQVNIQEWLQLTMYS
The experiment in a line: Biochemical inhibition of calpain 2, continuous fluorescence (FRET substrate) assay. The settings on record: mean; read-out: Human Calpain 2/NS1 1C50 [sic] (nM)_MEAN. Here is the method: (§1) Calpain 1, 2, and 9 activity and inhibition thereof are assessed by means of a continuous fluorescence assay. The SensoLyte 520 Calpain substrate (Anaspec Inc) is optimized for detecting calpain activity. This substrate contains a novel internally quenched 5-FAM/QXL™ 520 FRET pair. Calpains 1, 2, and 9 cleave the FRET substrate into two separate fragments resulting in an increase of 5-FAM fluorescence that is proportional to calpain activity.
(§2) Assays are typically setup in black 384-well plates using automated liquid handling as follows. Calpain assay base buffer typically contains 50 mM Tris, pH 7.5, 100 mM NaCl and 1 mM DTT. Inhibitors are serially diluted in DMSO and used to setup 2× mixtures with calpains in the aforementioned buffer. After incubation at ambient temperature (25 C), the reaction is initiated by adding a 2× mix of the fluorescent peptide substrate and CaCl2 (required for in-situ calpain activation) in the same buffer. Reaction progress curve data are typically collected for 10 min using excitation/emission wavelengths of 490 nm/520 nm on SpectraMax i3x or the FLIPR-Tetra plate readers (Molecular Devices Inc). Reaction rates were calculated from progress curve slopes typically over 1-5 min. Dose response curves (rate vs. log inhibitor concentration) were typically fit to a 4-parameter logistic function to extract IC50 values.

For another experiment, the target named is T2, Human Calpain 1/NS1 (Homo sapiens, UniProt P07384).
T2 sequence (P07384 1-714): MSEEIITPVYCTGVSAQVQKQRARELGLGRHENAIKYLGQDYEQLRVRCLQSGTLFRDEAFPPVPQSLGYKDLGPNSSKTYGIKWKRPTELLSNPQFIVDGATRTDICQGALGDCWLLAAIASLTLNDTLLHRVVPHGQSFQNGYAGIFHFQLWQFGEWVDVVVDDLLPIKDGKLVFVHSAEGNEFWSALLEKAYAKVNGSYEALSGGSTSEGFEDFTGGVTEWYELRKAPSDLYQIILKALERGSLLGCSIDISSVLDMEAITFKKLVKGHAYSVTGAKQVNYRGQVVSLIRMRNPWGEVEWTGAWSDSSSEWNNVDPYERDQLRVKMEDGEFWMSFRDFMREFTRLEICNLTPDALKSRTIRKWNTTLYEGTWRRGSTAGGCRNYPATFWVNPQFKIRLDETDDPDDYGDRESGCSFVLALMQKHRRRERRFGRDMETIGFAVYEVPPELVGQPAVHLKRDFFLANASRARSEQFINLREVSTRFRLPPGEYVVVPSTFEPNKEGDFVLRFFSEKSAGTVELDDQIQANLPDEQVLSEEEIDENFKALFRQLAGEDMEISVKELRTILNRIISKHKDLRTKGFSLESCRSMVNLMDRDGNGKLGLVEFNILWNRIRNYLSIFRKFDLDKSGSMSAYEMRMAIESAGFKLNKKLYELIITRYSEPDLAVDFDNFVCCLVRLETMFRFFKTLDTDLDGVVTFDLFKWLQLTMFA
T2 sequence (P04632 1-268 partner): T1 sequence (P04632 1-268 partner)
The experiment in a line: Biochemical inhibition of calpain 1, continuous fluorescence (FRET substrate) assay. Conditions: mean; read-out: Human Calpain 1/NS1 IC50 (nM)_MEAN. Here is the method:
as §1, §2

In a further experiment the target is T3, Human Calpain 9/NS1 (Homo sapiens, UniProt O14815).
T3 sequence (O14815 1-690): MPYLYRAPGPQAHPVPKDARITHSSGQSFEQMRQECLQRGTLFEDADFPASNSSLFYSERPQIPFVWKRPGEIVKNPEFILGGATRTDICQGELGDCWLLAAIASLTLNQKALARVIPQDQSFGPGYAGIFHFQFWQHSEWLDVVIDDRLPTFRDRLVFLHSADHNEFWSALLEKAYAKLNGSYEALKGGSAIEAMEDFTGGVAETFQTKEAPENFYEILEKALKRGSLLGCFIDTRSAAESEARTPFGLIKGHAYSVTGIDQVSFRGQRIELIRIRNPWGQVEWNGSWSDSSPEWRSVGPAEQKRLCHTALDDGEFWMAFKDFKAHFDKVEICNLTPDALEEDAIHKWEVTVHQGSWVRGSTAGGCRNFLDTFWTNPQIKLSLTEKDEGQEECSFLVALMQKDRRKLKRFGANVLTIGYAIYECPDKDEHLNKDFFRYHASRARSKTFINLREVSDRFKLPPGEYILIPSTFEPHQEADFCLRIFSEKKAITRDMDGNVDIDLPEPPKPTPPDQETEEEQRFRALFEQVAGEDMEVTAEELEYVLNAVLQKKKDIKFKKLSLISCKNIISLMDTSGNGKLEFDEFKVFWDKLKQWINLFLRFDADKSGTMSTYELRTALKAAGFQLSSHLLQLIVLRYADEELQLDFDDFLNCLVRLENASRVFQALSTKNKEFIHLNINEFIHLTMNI
T3 sequence (P04632 1-268 partner): T1 sequence (P04632 1-268 partner)
The experiment in a line: Biochemical inhibition of calpain 9, continuous fluorescence (FRET substrate) assay. The settings on record: mean; read-out: Human Calpain 9/NS1 IC50 (nM)_MEAN. As to the method: as §1, §2

In experiment [1] the test system is calpain activity in SH-SY5Y cells. The experiment in a line: SH-SY5Y cellular calpain activity, Suc-LLVY-AMC fluorescence assay. Format: cell-based. Conditions: Suc-LLVY-AMC substrate. Here is the method:
Calpain activity in SH-SY5Y cells and inhibition thereof were assessed by means of a homogeneous, fluorescence assay that uses the cell-permeable and pro-fluorescent calpain substrate Suc-LLVY-AMC (Sigma-Aldrich Inc). Upon intracellular calpain cleavage of Suc-LLVY-AMC, fluorescent amino-methyl-coumarin (AMC) is released into the media resulting in a continuous increase in fluorescence signal that is proportional to intra-cellular calpain activity.
Assays were typically setup by seeding SH-SY5Y cells in black 384-well plates at 40 k/per well in RPMI-1640 containing 1% serum followed by 37 C overnight incubation. Next morning, cells were pre-incubated for 30 min with serially diluted compounds followed by addition of 100 uM of Suc-LLVY-AMC substrate. The continuous increase in AMC fluorescence is monitored using a FLIPR, Tetra plate reader (Molecular Devices Inc) and slopes measured to report calpain activity. Dose response curves (slopes vs. log inhibitor concentration) were typically fit to a 4-parameter logistic function to extract IC50 values.

For `NC(=O)C(=O)[C@H](Cc1ccccc1)NC(=O)c1ccccc1Br` [Compound 36, (S)—N-(4-AMINO-3,4-DIOXO-1-PHENYLBUTAN-2-YL)-2-BROMOBENZAMIDE], the IC50 at Human Calpain 2/NS1 was < 3000 nM; on Human Calpain 1/NS1, < 3000 nM; on Human Calpain 9/NS1 it was < 3000 nM; in experiment [1], < 10 µM.
In the case of `COc1cccc(OC)c1C(=O)N[C@@H](Cc1ccccc1)C(=O)C(N)=O` [Compound 18, (S)—N-(4-AMINO-3,4-DIOXO-1-PHENYLBUTAN-2-YL)-2,6-DIMETHOXYBENZAMIDE], the IC50 is > 10000 nM at Human Calpain 2/NS1, > 10000 nM on Human Calpain 1/NS1, 3000 to 10000 nM on Human Calpain 9/NS1 and > 25 µM in experiment [1].
Consider `O=C(NC1CC1)C(=O)[C@H](Cc1ccccc1)NC(=O)c1c(Cl)cccc1Cl` [Compound 2, (S)-2,6-DICHLORO-N-(4-(CYCLOPROPYLAMINO)-3,4-DIOXO-1-PHENYLBUTAN-2-YL)BENZAMIDE], for which the IC50 on Human Calpain 2/NS1 is < 3000 nM; at Human Calpain 1/NS1, < 3000 nM; on Human Calpain 9/NS1, < 3000 nM; in experiment [1], < 10 µM.
On to `NC(=O)C(=O)C(Cc1ccccc1)NC(=O)n1c2ccccc2c2ccccc21` (stereo not shown) [Compound 8, N-(4-AMINO-3,4-DIOXO-1-PHENYLBUTAN-2-YL)-9H-CARBAZOLE-9-CARBOXAMIDE], for which the IC50 at Human Calpain 2/NS1 is > 10000 nM; at Human Calpain 1/NS1 it was 3000 to 10000 nM; on Human Calpain 9/NS1 it was > 10000 nM; in experiment [1], > 25 µM.
Regarding `Cc1cccc(C(=O)NC(Cc2ccccc2)C(=O)C(N)=O)c1C` (stereo not shown) [Compound 26, N-(4-AMINO-3,4-DIOXO-1-PHENYLBUTAN-2-YL)-2,3-DIMETHYLBENZAMIDE], the IC50 at Human Calpain 2/NS1 is < 3000 nM; on Human Calpain 1/NS1, < 3000 nM; at Human Calpain 9/NS1 it was < 3000 nM; in experiment [1], < 10 µM.
For `NC(=O)C(=O)C(Cc1ccccc1)NC(=O)c1cccc(F)c1` (stereo not shown) [Compound 25, N-(4-AMINO-3,4-DIOXO-1-PHENYLBUTAN-2-YL)-3-FLUOROBENZAMIDE], the IC50 on Human Calpain 2/NS1 was < 3000 nM; at Human Calpain 1/NS1 it was < 3000 nM; on Human Calpain 9/NS1 it was < 3000 nM; in experiment [1], < 10 µM.
As to `NC(=O)C(=O)C(Cc1ccccc1)NC(=O)C1c2ccccc2-c2ccccc21` (stereo not shown) [Compound 10, N-(4-AMINO-3,4-DIOXO-1-PHENYLBUTAN-2-YL)-9H-FLUORENE-9-CARBOXAMIDE], the IC50 on Human Calpain 2/NS1 is 3000 to 10000 nM; on Human Calpain 1/NS1 it was > 10000 nM; at Human Calpain 9/NS1 it was > 10000 nM; in experiment [1], 10 to 25 µM.
Consider `NC(=O)C(=O)C(Cc1ccccc1)NC(=O)N1c2ccccc2Oc2ccccc21` (stereo not shown) [Compound 6, N-(4-AMINO-3,4-DIOXO-1-PHENYLBUTAN-2-YL)-10H-PHENOXAZINE-10-CARBOXAMIDE], for which the IC50 at Human Calpain 2/NS1 is < 3000 nM; on Human Calpain 1/NS1, < 3000 nM; on Human Calpain 9/NS1, > 10000 nM; in experiment [1], > 25 µM.
`NC(=O)C(=O)[C@H](Cc1ccccc1)NC(=O)c1c(Cl)cccc1C(F)(F)F` [Compound 19, (S)—N-(4-AMINO-3,4-DIOXO-1-PHENYLBUTAN-2-YL)-2-CHLORO-6-(TRIFLUOROMETHYL)BENZAMIDE]: the IC50 on Human Calpain 2/NS1 is < 3000 nM; at Human Calpain 1/NS1, < 3000 nM; on Human Calpain 9/NS1 it was < 3000 nM; in experiment [1] it was > 25 µM.
For `NC(=O)C(=O)[C@H](Cc1ccccc1)NC(=O)c1ccc(F)cc1` [Compound 4, (S)—N-(4-AMINO-3,4-DIOXO-1-PHENYLBUTAN-2-YL)-4-FLUOROBENZAMIDE], the IC50 on Human Calpain 2/NS1 is 3000 to 10000 nM; on Human Calpain 1/NS1, > 10000 nM; on Human Calpain 9/NS1 it was 3000 to 10000 nM; in experiment [1], 10 to 25 µM.
For the molecule `NC(=O)C(=O)[C@H](Cc1ccccc1)NC(=O)c1ccc(-c2ccccc2)cc1` [Compound 23, (S)—N-(4-AMINO-3,4-DIOXO-1-PHENYLBUTAN-2-YL)-[1,1′-BIPHENYL]-4-CARBOXAMIDE], the IC50 at Human Calpain 2/NS1 is > 10000 nM; on Human Calpain 1/NS1, < 3000 nM; at Human Calpain 9/NS1, > 10000 nM; in experiment [1] it was < 10 µM.
As for `COc1ccc(Cl)cc1C(=O)N[C@@H](Cc1ccccc1)C(=O)C(N)=O` [Compound 17, (S)—N-(4-AMINO-3,4-DIOXO-1-PHENYLBUTAN-2-YL)-5-CHLORO-2-METHOXYBENZAMIDE], the IC50 is < 3000 nM on Human Calpain 2/NS1, < 3000 nM on Human Calpain 1/NS1, < 3000 nM on Human Calpain 9/NS1 and < 10 µM in experiment [1].
`NC(=O)C(=O)[C@H](Cc1ccccc1)NC(=O)c1c(C(F)(F)F)cccc1C(F)(F)F` [Compound 20, (S)—N-(4-AMINO-3,4-DIOXO-1-PHENYLBUTAN-2-YL)-2,6-BIS(TRIFLUOROMETHYL)BENZAMIDE]: the IC50 at Human Calpain 2/NS1 is 3000 to 10000 nM; on Human Calpain 1/NS1, < 3000 nM; on Human Calpain 9/NS1, < 3000 nM; in experiment [1], 10 to 25 µM.
